In ChEMBL document CHEMBL3352172, “Discovery of S-adenosyl-L-homocysteine hydrolase inhibitors based on non-adenosine analogs” (Bioorg Med Chem Lett, 2014):

Target: Adenosylhomocysteinase (Homo sapiens, UniProt P23526)
Test: Inhibition of human recombinant S-adenosyl-L-homocysteine hydrolase assessed as AdoHcy hydrolysis activity by HPLC analysis

Adenosylhomocysteinase, sequence (P23526 whole entry): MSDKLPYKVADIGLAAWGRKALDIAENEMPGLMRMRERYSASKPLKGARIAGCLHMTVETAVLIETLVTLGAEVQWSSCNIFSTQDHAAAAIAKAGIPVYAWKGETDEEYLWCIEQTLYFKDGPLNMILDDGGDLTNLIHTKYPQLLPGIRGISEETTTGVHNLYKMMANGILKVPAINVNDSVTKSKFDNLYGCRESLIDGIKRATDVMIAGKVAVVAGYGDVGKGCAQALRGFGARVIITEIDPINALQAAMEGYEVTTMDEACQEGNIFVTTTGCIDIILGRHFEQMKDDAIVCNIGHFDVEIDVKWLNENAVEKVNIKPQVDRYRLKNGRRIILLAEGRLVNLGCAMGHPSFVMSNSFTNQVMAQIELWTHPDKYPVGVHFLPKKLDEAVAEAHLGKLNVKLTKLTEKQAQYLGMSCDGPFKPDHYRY

Structure (SMILES) | IC50 [µM]
O=C(CN(CC(=O)NC1Cc2ccccc2C1)c1cc(Cl)ccc1Oc1ccc(Cl)cc1)NCCN1CCCC1 | 11.4
O=C(CN(CC(=O)N1Cc2ccccc2C1)c1cc(Cl)ccc1Oc1ccc(Cl)cc1)NCCN1CCCC1 | > 100
O=C(CN(CC(=O)N1CCc2ccccc2C1)c1cc(Cl)ccc1Oc1ccc(Cl)cc1)NCCN1CCCC1 | 17
CN(C(=O)CN(CC(=O)NC1CCCNC1)c1cc(Cl)ccc1Oc1ccc(Cl)cc1)C1Cc2ccccc2C1 (configuration not stated) | 1.2

Now from value to compound:

IC50 [µM] | Structure (SMILES)
0.97 | O=C(CN(CC(=O)N1CCC(c2ccccc2)CC1)c1cc(Cl)ccc1Oc1ccc(Cl)cc1)NCCN1CCCC1
> 100 | CN(C(=O)CN(CC(=O)NCCN1CCCC1)c1cc(Cl)ccc1Oc1ccc(Cl)cc1)C1CCNCC1
1.5 | CN(C(=O)CN(CC(=O)NC1CCNC1)c1cc(Cl)ccc1Oc1ccc(Cl)cc1)C1Cc2ccccc2C1 (configuration not stated)
